Test results as given in article PMC10534891, “Evaluation of 4-Aminoquinoline Hydrazone Analogues as Potential Leads for Drug-Resistant Malaria” (Molecules, 2023).
Like-named read-outs stand apart in the source and are kept apart here.

Experiments:
P. falciparum K1 strain [1] = experiment: P. falciparum K1 asexual growth inhibition, 48 h, SYBR Green-based plate reader assay; type: cell-based, Plasmodium falciparum; conditions: Plasmodium falciparum, K1, 48 h, read-out: Plasmodium IC50 ± SE
Procedure: Sixteen 4-amino-6-methoxy-quinoline hydrazone compounds (see Figure S1, Supplementary Materials for full structures), with methyl and phenyl substituents at the 2-position (R = Me, Ph) and various substituents at R’ (Table 1), were tested for their antimalarial activities. A 1% parasitised culture at the trophozoite stage was treated with the compounds for 48 h at concentrations of 0.003050–200 µM (four-fold serial dilution) against the P. falciparum K1 strain, and the growth was measured using the SYBR Green-based plate reader assay.
In total, 1% of infected RBCs at the ring or trophozoites stage was exposed to nine dilutions (four-fold serial dilution) of compounds from 50 mM stock solutions in DMSO. A total of 100 µL of culture volume was added in 96-well plates with 100 µL drug dilutions. Plates were either incubated for 48 h or 72 h at 37 °C, 5% CO2, 5% O2 in N2. Following the incubation, 150 µL of the medium was carefully removed and 150 µL of the 5× SYBR Green solution (prepared by adding 2 µL of 10,000× SYBR Green in 4 mL of PBS) was added to each well. Plates were kept in the dark for 45 min. Fluorescence intensity was measured using a microplate reader (Genius Tecan) with an excitation of 485 nm and an emission of 535 nm.
IC50 values were determined using Graph Pad Prism 5.0. Values were calculated using non-linear regression by using log-transformed drug concentration plotted against dose–response. Parasitaemia was calculated and normalised relative to the response on the controls (cultures without drug).

P. falciparum K1 strain [2] = conditions: read-out: IC50 (published data); published value for comparison; cited from earlier work

Compound: CCN(CC)CCCC(C)Nc1ccnc2cc(Cl)ccc12 (centres unmarked) [Chloroquine, reference compound]
- IC50 (P. falciparum K1 strain [1]): 199 ± 40 nM
- IC50 (P. falciparum K1 strain [2]): 255 ± 49 nM
